Among the data in PubChem BioAssay (NCI) are TGI values, retold here.

Among the test systems are HS 578T breast; TK-10 renal; HOP-92 NSCLC; NCI-H460 lung; SNB-75 CNS; SK-MEL-5 melanoma; OVCAR-4 ovarian; RXF 393 renal; HCT-15 colon; SF-268 CNS; T-47D breast; MALME-3M melanoma; HT29 colon.
Assay in all cases: NCI tumour cell line growth inhibition, 48 h

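Step 1: Grow cells in 96-well plates. Step 2: Expose to compound for 48 hours at 5 concentrations. Step 3: Interpolate endpoints linearly; if unreached, use highest concentration. TGI marks complete inhibition of growth.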 Some results are limits rather than exact numbers.

As to `COc1ccc2c[n+](C)c3c4cc(OC)c(OC)cc4ccc3c2c1`, the TGI in the test on HS 578T breast worked out at 16.1 µM; in the test on TK-10 renal, 51.5 µM; with HOP-92 NSCLC it was 35.3 µM; in the test on NCI-H460 lung, 19.3 µM; in the test with SNB-75 CNS, 15.7 µM; in the test on SK-MEL-5 melanoma it was 29.3 µM. Moreover, the TGI is 26.4 µM in the test on OVCAR-4 ovarian; 35.2 µM in the test with RXF 393 renal; greater than 70.4 µM with HCT-15 colon; 13.2 µM in the test with SF-268 CNS; 18.9 µM in the test with T-47D breast; 42 µM with MALME-3M melanoma. In the test on HT29 colon, this compound showed a TGI of 23.1 µM.

As to `O=c1c[n+](-c2ccccc2)[nH]o1`, the TGI in the test on HS 578T breast, with TK-10 renal, with HOP-92 NSCLC, in the test on NCI-H460 lung, in the test on SNB-75 CNS and in the test on SK-MEL-5 melanoma was greater than 100 µM each time. Moreover, the TGI in the test on OVCAR-4 ovarian, in the test on RXF 393 renal, with HCT-15 colon, in the test on SF-268 CNS, in the test with T-47D breast and with MALME-3M melanoma was greater than 100 µM throughout. This compound had a TGI in the test on HT29 colon greater than 100 µM.

As to `CC1(C)CCCCCC(C)(CCCCCCCCCCCO)C1=O` (stereo not given), the TGI with HS 578T breast came out at 32.4 µM; in the test on TK-10 renal, 24.5 µM; in the test on HOP-92 NSCLC, 31.2 µM; in the test on NCI-H460 lung, 31.9 µM; in the test on SNB-75 CNS it was 29.9 µM; in the test on SK-MEL-5 melanoma, 31.3 µM. In addition, the TGI with OVCAR-4 ovarian is 28.8 µM; in the test with RXF 393 renal, 31.4 µM; in the test with HCT-15 colon, 29.7 µM; with SF-268 CNS, 30.2 µM; with T-47D breast, 29.8 µM; with MALME-3M melanoma it was 29.8 µM. This compound registered a TGI in the test with HT29 colon of 24.1 µM.

As to `BrCCC[P+](c1ccccc1)(c1ccccc1)c1ccccc1`, the TGI with HS 578T breast is greater than 79.6 µM; in the test on TK-10 renal, greater than 100 µM; in the test on HOP-92 NSCLC, 44.4 µM; in the test with NCI-H460 lung, greater than 100 µM; with SNB-75 CNS it was 59.2 µM; with SK-MEL-5 melanoma it was 21 µM. The TGI in the test on OVCAR-4 ovarian is greater than 100 µM; in the test with RXF 393 renal, 7.55 µM; with HCT-15 colon, greater than 100 µM; with SF-268 CNS it was greater than 100 µM; in the test on T-47D breast it was 36.5 µM; with MALME-3M melanoma, greater than 100 µM. The compound further gave a TGI in the test on HT29 colon greater than 100 µM.

Consider `O=C1NC(N/N=C/c2ccccc2)=N/C1=C\c1cccs1`, for which the TGI in the test on HS 578T breast was 9.94 µM; in the test on TK-10 renal, 71.5 µM; in the test with HOP-92 NSCLC it was 32.4 µM; in the test with NCI-H460 lung it was greater than 100 µM; in the test with SNB-75 CNS, 51.8 µM; in the test with SK-MEL-5 melanoma, 20.7 µM. The TGI in the test on OVCAR-4 ovarian was greater than 68.9 µM; in the test with RXF 393 renal, 40.7 µM; with HCT-15 colon, 48.5 µM; in the test with SF-268 CNS, 30.3 µM; with T-47D breast, greater than 100 µM; in the test on MALME-3M melanoma it was 27.8 µM. For the same compound, the TGI in the test on HT29 colon was greater than 55.3 µM.

Take `O=C1OC2c3ccccc3C(=O)C2(c2ccccc2)N1c1ccccc1` (stereo not given): the TGI in the test with HS 578T breast, with TK-10 renal, in the test on HOP-92 NSCLC, with NCI-H460 lung, in the test on SNB-75 CNS and in the test with SK-MEL-5 melanoma was greater than 200 µM in each case. Further, the TGI in the test with OVCAR-4 ovarian, in the test on RXF 393 renal, with HCT-15 colon, in the test with SF-268 CNS, in the test on T-47D breast and in the test on MALME-3M melanoma was greater than 200 µM in each case. The TGI in the test on HT29 colon was greater than 200 µM.

As for `Cn1c(=O)c2c(ncn2CCSS(=O)(=O)O)n(C)c1=O`, the TGI with HS 578T breast, in the test with TK-10 renal, in the test on HOP-92 NSCLC, with NCI-H460 lung, in the test with SNB-75 CNS and in the test with SK-MEL-5 melanoma was greater than 100 µM throughout. Also, the TGI with OVCAR-4 ovarian, in the test on RXF 393 renal, in the test on HCT-15 colon, in the test on SF-268 CNS, with T-47D breast and in the test with MALME-3M melanoma was greater than 100 µM each time. In the test on HT29 colon, the TGI is greater than 100 µM.

For the compound `C[N+](C)(C)C1(C(=O)[O-])CC1`, the TGI in the test with HS 578T breast, with TK-10 renal, in the test on HOP-92 NSCLC, in the test with NCI-H460 lung, in the test with SNB-75 CNS and with SK-MEL-5 melanoma was greater than 100 µM each time. In addition, the TGI in the test on OVCAR-4 ovarian, with RXF 393 renal, with HCT-15 colon, with SF-268 CNS, in the test with T-47D breast and in the test on MALME-3M melanoma was greater than 100 µM in each case. The TGI with HT29 colon was greater than 100 µM.

On to `COc1ccc(N2CCN(Cc3c(C(C)=O)[n+](=O)c4ccccc4n3[O-])CC2)cc1`, for which the TGI in the test on HS 578T breast is greater than 100 µM; with TK-10 renal it was 67.5 µM; in the test with HOP-92 NSCLC it was greater than 100 µM; in the test with NCI-H460 lung, greater than 100 µM; in the test with SNB-75 CNS, greater than 100 µM; in the test on SK-MEL-5 melanoma it was greater than 100 µM. For the same compound, the TGI in the test on OVCAR-4 ovarian was greater than 100 µM; with RXF 393 renal, 83.4 µM; in the test on HCT-15 colon, greater than 100 µM; in the test with SF-268 CNS, greater than 100 µM; in the test on T-47D breast it was greater than 100 µM; in the test on MALME-3M melanoma, 60.6 µM. Besides, the TGI with HT29 colon was greater than 100 µM.

As to `CC(=O)O[C@H]1[C@H](OC(C)=O)[C@@H](CN=[N+]=[N-])OCO[C@@H]1CN=[N+]=[N-]`, the TGI with HS 578T breast, in the test with TK-10 renal, in the test on HOP-92 NSCLC, in the test on NCI-H460 lung, with SNB-75 CNS and in the test with SK-MEL-5 melanoma was greater than 100 µM in each case. The TGI in the test with OVCAR-4 ovarian, in the test on RXF 393 renal, in the test with HCT-15 colon, with SF-268 CNS, with T-47D breast and in the test with MALME-3M melanoma was greater than 100 µM each time. This compound also showed a TGI in the test with HT29 colon greater than 100 µM.
